Data set [1] can be described thus: apparent pKa of ionizable lipid in lipid nanoparticle, TNS assay. Conditions: for ΔpKa: difference of calculated and measured pKa; for pKa: TNS assay. The format is physicochemical. The protocol: c Log D and c-pKa were calculated as noted above. The measured pKa of a lipid was determined as formulated in a lipid nanoparticle using the TNS assay as described in the following Example.
The apparent pKa of ionizable lipid in the lipid nanoparticle was determined using 6-(p-toluidino)-2-naphthalenesulfonic acid sodium salt (TNS salt, Toronto Research Chemicals, Toronto, ON, Canada). Lipid nanoparticles were diluted in 1×Dulbecco's PBS to a concentration of 1 mM total lipids. TNS salt was prepared as a 1 mg/mL stock solution in DMSO and then further diluted using distilled water to a working solution of 60 μg/mL ([…]). Diluted lipid nanoparticle samples were further diluted to 90 μM total lipids in 165 μL of buffered solution containing 10 mM HEPES, 10 mM MES, 10 mM ammonium acetate, 130 mM NaCl, and final TNS concentration of 1.33 μg/mL (4 μM) with the pH ranging from 3.5 to 12.2. Following pipette mixing and incubation at room temperature in the dark for 15 min, fluorescence intensity was measured at room temperature in a BioTek Synergy H1 plate reader using excitation and emission wavelengths of 321 and 445 nm, respectively. The fluorescence signal was blank subtracted and plotted as a function of the pH, then analyzed using a nonlinear (Boltzmann) regression analysis with the apparent pKa determined as the pH giving rise to half maximal fluorescence intensity as calculated by the Henderson-Hasselbalch equation.

Data set [2] in a line: ex vivo stability in mouse plasma. The format is in vitro ADME. Conditions: 37° C.; for ex vivo Mouse Plasm Stability % Remaining at 2 Hours: CD-1 mouse plasma, 1 μM lipid. How it is done:
To determine the stability of the disclosed lipids in mouse plasma lipid stock solution was prepared by dissolution of the lipid in isopropanol at the concentration of 5 mg/mL. A requisite volume of the lipid-isopropanol solution was then diluted to 100 μM concentration at a total volume of 10.0 mL with 50:50 (v/v) ethanol/water. Ten microliters of this 100 μM solution was spiked into 10.0 mL of mouse plasma (BioIVT, Lot MSE394920, CD-1 mouse, anticoagulant: sodium heparin, not filtered) that was prewarmed to 37° C. and stirred at 50 rpm with a magnetic stir bar. The starting concentration of lipids in plasma was thus 1 μM. Aliquots (50 μL) were taken after 0, 15, 30, 45, 60, and 120 minutes, transferred to microcentrifuge tubes and quenched with three volumes (150 μL) of ice cold acetonitrile/methanol (4:1). Positive control incubations utilized the same plasma, with Benfluorex (1 μM) as the substrate with Labetalol (1.0 μgl) as the in situ disappearance. The quenched solutions were vortexed, centrifuged for 5 minutes at 13,000 rpm, and supernatant (100 μL) transferred to a 96-well plate and diluted with water (200 μL, 0.1% FA). After filtration through a 0.45 μm 96-well filtering plate, the filtrates were analyzed by LC-MS (Waters AQUITY I-class UPLC system, ThermoScientific Vanquish UPLC system consisting of a binary pump, autosampler, and column compartment, Waters Xevo G2-XS QT of mass spectrometer; Phenomenex F5, 1.7 μm, 2.1×50 mm column). Mobile phase A was 0.1% formic acid in water, and mobile phase B was 0.1% formic acid in acetonitrile. The flow rate was 0.6 mL/min. Elution gradient was as follows: time, 0.5 min: 20% B; 0.5-2 min: 20-100% B; 2-4.8 min: 100% B; 4.8-5.45 min: 100-20% B. Mass spectrometry was in positive scanning mode from 600-1100 m/z. The peak of the molecular ion of the lipids was integrated in extracted ion chromatography (XIC) using Xcalibur software (Thermo Fisher). The relative peak area compared to T=0, after normalization by the peak area of the internal standard, was used as the percentage of the lipid remaining at each time point. T1/2 values were calculated using the first-order decay model.

The nature of data set [3]: physical-chemical properties of LNP encapsulating mCherry mRNA. The format is physicochemical. Conditions: for Hydrodynamic diameter: LNP: ionizable lipid/DSPC/cholesterol/DMG-PEG2000 50:10:38.5:1.5, mCherry mRNA, pH 7.4 Tris, 25° C. The text has this:
The mRNA was encapsulated in LNP using a self-assembly process in which an aqueous solution of mRNA at pH=3.5 is rapidly mixed with a solution of lipids dissolved in ethanol, then followed by stepwise phosphate and Tris buffer dilution and tangential flow filtration (TFF) purification. LNP composition in this study was: ionizable cationic lipid/distearoylphosphatidylcholine/cholesterol/DMG-PEG2000 (50:10:38.5:1.5 mol/mol) and were encapsulated at an N/P ratio (the ratio of positively-chargeable lipid amine (N=nitrogen) groups to negatively-charged nucleic acid phosphate (P) groups) at 6. LNPs were frozen at −80° C. […] The diameter of the nanoparticles was measured by dynamic light scattering using a Zetasizer Nano ZS (Malvern Instruments Ltd., Malvern, UK) instrument. Size measurement was carried out in pH 7.4 Tris buffer at 25° C. in relevant disposable capillary cells. A non-invasive back scatter system (NIBS) with a scattering angle of 173° was used for size measurements.

A further data set relates to mouse splenic T cells. Briefly: targeted transfection of T cells in vitro with CD5-targeted tLNP. The format is cell-based. To be noted: activated mouse splenic T cells, 0.6 μg tLNP per well; for transfection rate (proportion of CD3+ cells mCherry positive): 1 hour, read next day. The protocol:
To assess the performance of tLNP described in Example 35 they were used to transfect mouse T cells in tissue culture. Mouse splenic T cells were isolated from mechanically dissociated mouse spleens using a standard T cell isolation kit (Stem Cell Technologies #19851). Isolated T cells were cultured in complete RPMI medium supplemented with murine interleukin-2 in the presence of CD3/CD28 T cell activation beads (Gibco #11453D) for 3 days. Following activation, T cells were magnetically separated from the activation beads and transferred to a 96-well plate at a concentration of 2×10^5 cells per well in 100 μL of complete RPMI medium. tLNP formulations as described in Example 35 (above) were diluted to 100 μg/mL and 6 μL (0.6 μg) of tLNP was added to each well of cells to be tested. Cells were incubated with tLNPs at 37° C. for 1 hour before tLNPs were washed away by centrifuging the plate, removing the supernatant, and replacing with fresh medium. Transfected cells were then returned to the incubator overnight. The next day, cells were washed and resuspended in stain buffer containing fluorescently tagged antibodies against T cells markers for 30 minutes before a final wash. After washing, cells were resuspended in stain buffer and run on the Novocyte Quanteon flow cytometer to detect mCherry expression as well as murine T cell markers. Results for CD3^+ T cells are depicted in FIG. 6.

Where [4] appears, read: ionizable lipid in tLNP, read-out: Measured pKa.
Setting [5] is: measured, lipid formulated in a lipid nanoparticle, read-out: pKa.

Results on two compounds are retold here after US20230320995A1, “IONIZABLE CATIONIC LIPIDS AND LIPID NANOPARTICLES” (CAPSTAN THERAPEUTICS, INC., priority 2022, published 2023).

One may read the pKa as the pH at which an ionisable group is half protonated. Broadly, the half-life is how long it takes for the measured level to halve. Read a high half-life as slow decline.

SMILES strings stand for the structures. Read-outs that look alike come from different tables or passages of the source. A value given as a limit tells only on which side of the number the result lay.

Consider `CCCCCCCCCC(=O)OCC(COC(=O)CCCCCCCCC)CC(=O)OCCN(CCOC(=O)CC(COC(=O)CCCCCCCCC)COC(=O)CCCCCCCCC)C(=O)NCCCN(C)C` [Compound A-2], for which, in data set [1], the ΔpKa was 1.62. The pKa in data set [1] (setting [4]) and in data set [1] (setting [5]) was 7.92 each time. Further, in data set [2], the “ex vivo Mouse Plasm Stability % Remaining at 2 Hours” value came out at 72%. In data set [3] (LNP 50:10:38.5:1.5, mCherry mRNA, N/P 6), the “Encapapsulation Efficiency” value was 99%. Besides, the “PDI (polydispersity index)” value in data set [3] (LNP 50:10:38.5:1.5, mCherry mRNA, DLS) is listed as 0.13. Also, the Hydrodynamic diameter in data set [3] (N/P 6, DLS) came to 73 nm. The “transfection rate (proportion of CD3+ cells mCherry positive)” value with mouse splenic T cells is on record as “poor, but still positive”.

In the case of `CCCCCCCCC(=O)OCC(COC(=O)CCCCCCCC)CC(=O)OCCN(CCOC(=O)CC(COC(=O)CCCCCCCC)COC(=O)CCCCCCCC)C(=O)OCCN(C)C` [Compound A-11], the ΔpKa in data set [1] is listed as 1.81. The pKa in data set [1] (setting [4]) is 6.65. Also, the pKa in data set [1] (setting [5]) lay within 6 to 7. Further, in data set [2] (CD-1, mouse plasma), the half-life at 1 μM is less than 600 min. In addition, in data set [2], the “ex vivo Mouse Plasm Stability % Remaining at 2 Hours” value is reported as 86%. The same compound registered a Hydrodynamic diameter in data set [3] (N/P 6, DLS) of 82 nm. In the data set with mouse splenic T cells, the “level of mCherry expression (MFI)” value is given as “high level of expression” and the “transfection rate (proportion of CD3+ cells mCherry positive)” value was approximately 80%.
